Results reported in patent publication US20090325959A1 (priority 2008, published 2009).
Where two headings read alike, the source gives them in different places.

Key:
[1] = system: A-10 rat thoracic aorta cells; assay: PDGF-stimulated smooth muscle cell proliferation assay (BrdU incorporation); type: cell-based; details: A-10 cells, 10 ng/mL PDGF, BrdU incorporation, percent of total challenge-stimulated proliferation; for Percent of PDGF Induced Proliferation at 1 μM Avg: 1 μM test compound; for Percent of PDGF Induced Proliferation at 10 μM Avg: 10 μM test compound;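 as to all read-outs here: cells kept in serum-free medium, BrdU allowed to incorporate for 24 h, then incorporated label detected fluorometrically with an anti-BrdU antibody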
ROCK2 = target: T1, ROCK2 (Homo sapiens, UniProt O75116); assay: Rho kinase inhibition assay (IMAP fluorescence polarization), ROCK2; type: biochemical;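 also: kinase reaction started with 10 µM ATP and run 60 min at room temperature, then phosphorylated substrate captured on IMAP beads for 30 min and fluorescence polarization read in mP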
T1 construct: purchased Upstate/Chemicon 14-451
T1 sequence (O75116 11-552 limits assumed): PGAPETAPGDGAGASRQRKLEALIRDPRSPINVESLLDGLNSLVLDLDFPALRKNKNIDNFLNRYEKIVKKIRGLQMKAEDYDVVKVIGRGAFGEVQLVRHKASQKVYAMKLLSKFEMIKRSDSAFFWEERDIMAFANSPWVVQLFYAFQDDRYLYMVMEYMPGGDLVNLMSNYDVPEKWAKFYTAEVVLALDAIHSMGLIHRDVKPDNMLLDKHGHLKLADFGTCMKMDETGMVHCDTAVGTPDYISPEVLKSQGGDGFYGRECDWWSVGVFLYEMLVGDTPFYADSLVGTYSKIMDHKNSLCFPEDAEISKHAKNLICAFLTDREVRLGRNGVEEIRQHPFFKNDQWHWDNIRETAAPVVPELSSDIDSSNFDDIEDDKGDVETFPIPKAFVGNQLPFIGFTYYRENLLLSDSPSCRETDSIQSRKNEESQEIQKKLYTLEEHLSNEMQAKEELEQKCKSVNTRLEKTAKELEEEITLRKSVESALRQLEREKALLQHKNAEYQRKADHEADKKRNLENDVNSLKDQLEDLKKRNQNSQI
Description: (§1) Following the pre-incubation, 10 μM ATP was added to initiate the reaction. After 60 minutes at room temperature, Molecular Devices IMAP™ binding solution was added to bind phosphorylated substrate. After 30 minutes of incubation in the presence of the IMAP™ beads, the fluorescence polarization was read and the ratio was reported as mP. IC50 values for compounds and EC50 values for ATP were calculated using the Prism software from Graphpad.

[2] = Compound plasma concentrations in unsensitized mice at 15 min post administration; type: in vivo; details: mouse, 15 μmol/kg; mean compound plasma concentration in mice at 15 minutes post oral administration; read-out: Mouse Oral PK
Akt3 human enzyme = target: T2, Akt3 human enzyme (Homo sapiens, UniProt Q9Y243); assay: Akt3 inhibition assay (IMAP FP); type: biochemical;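 also: kinase reaction run 60 min at room temperature after 30 µM ATP start, phosphorylated substrate captured on IMAP beads and read as fluorescence polarization (mP)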
T2 construct: purchased Upstate Chemicon 14-502
T2 sequence (Q9Y243 whole entry): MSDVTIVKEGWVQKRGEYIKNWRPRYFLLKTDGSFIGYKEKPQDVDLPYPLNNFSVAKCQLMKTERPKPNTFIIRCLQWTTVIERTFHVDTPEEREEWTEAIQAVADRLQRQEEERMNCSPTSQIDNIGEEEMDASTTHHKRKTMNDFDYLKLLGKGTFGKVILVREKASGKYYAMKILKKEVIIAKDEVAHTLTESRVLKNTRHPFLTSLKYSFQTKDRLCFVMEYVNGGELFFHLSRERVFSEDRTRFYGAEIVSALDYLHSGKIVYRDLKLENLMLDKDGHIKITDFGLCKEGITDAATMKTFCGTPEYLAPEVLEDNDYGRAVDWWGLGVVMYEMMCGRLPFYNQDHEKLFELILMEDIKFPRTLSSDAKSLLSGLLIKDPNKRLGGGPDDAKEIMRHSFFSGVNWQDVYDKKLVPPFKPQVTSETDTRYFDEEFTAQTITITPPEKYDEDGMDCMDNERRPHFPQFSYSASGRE

ROCK1 = target: T3, ROCK1 (Homo sapiens, UniProt Q13464); assay: Rho kinase inhibition assay (IMAP fluorescence polarization), ROCK1; type: biochemical;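 also: kinase reaction run 60 min at room temperature, then phosphorylated substrate captured on IMAP beads for 30 min, with fluorescence polarization read in mP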
T3 construct: purchased Upstate/Chemicon 14-601
T3 sequence (Q13464 17-535 limits assumed): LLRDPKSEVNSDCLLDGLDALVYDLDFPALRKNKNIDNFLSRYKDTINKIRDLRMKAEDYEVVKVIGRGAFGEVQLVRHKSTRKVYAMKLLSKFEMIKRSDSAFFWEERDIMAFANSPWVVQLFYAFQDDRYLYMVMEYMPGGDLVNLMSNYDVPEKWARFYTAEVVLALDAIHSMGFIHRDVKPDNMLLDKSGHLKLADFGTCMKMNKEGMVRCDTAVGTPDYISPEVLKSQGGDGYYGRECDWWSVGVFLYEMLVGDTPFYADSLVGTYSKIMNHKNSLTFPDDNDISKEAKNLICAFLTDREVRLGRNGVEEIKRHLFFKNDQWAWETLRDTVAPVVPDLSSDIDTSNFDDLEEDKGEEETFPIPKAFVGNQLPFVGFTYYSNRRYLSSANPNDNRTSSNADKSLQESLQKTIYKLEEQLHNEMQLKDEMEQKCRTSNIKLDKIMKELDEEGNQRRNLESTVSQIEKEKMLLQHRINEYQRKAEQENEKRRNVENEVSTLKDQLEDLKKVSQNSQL
Description: as §1

p70S6K human enzyme = target: T4, p70S6K human enzyme (Homo sapiens, UniProt P23443, T412E); assay: p70S6K inhibition assay (IMAP FP); type: biochemical;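 also: kinase reaction run at room temperature, phosphorylated substrate captured on IMAP beads and read as fluorescence polarization in mP, IC50 then converted to Ki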
T4 construct: purchased Upstate Chemicon 14-486
T4 sequence (P23443 1-421 T412E limits assumed): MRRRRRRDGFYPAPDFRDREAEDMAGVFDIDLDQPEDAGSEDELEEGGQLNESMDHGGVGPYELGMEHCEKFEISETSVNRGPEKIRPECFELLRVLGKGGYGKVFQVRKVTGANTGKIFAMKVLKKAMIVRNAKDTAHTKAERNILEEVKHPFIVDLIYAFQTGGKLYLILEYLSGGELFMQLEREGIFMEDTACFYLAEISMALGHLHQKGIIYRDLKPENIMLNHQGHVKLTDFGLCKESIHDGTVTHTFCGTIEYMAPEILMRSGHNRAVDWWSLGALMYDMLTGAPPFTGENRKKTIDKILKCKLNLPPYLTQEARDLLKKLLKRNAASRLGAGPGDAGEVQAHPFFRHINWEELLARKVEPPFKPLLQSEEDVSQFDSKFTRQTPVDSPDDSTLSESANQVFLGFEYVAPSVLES

[3] = Rat oral pharmacokinetics (plasma); type: in vivo; details: 20-30 μmol/kg
[4] = 10 μM ATP, read-out: ROCK2 Ki, Avg
[5] = 30 μM ATP, Ki=IC50/(1+([ATP Challenge]/EC50 ATP)), read-out: Akt3 Ki, Avg
[6] = 30 μM ATP, Ki=IC50/(1+([ATP Challenge]/EC50 ATP)), read-out: p70S6K Ki, Avg
[7] = average Ki, read-out: p70S6K Ki

CCCS(=O)(=O)Nc1cc(CN2CCC[C@H](Nc3ccc4[nH]ncc4c3)C2)ccc1C [Compound 1.238, (S)-N-(5-((3-(1H-indazol-5-ylamino)piperidin-1-yl)methyl)-2-methylphenyl)propane-1-sulfonamide]
Percent of PDGF Induced Proliferation at 1 μM Avg [1]: 40.7%
Percent of PDGF Induced Proliferation at 10 μM Avg [1]: 48.6%
Ki (ROCK2; [4]): 1.5 nM
Ki (ROCK2; average Ki, read-out: ROCK2 Ki): 1.5 nM
concentration at 15 min [2]: 48 nM
Ki (Akt3 human enzyme; [5]): 4170 nM
Ki (Akt3 human enzyme; average Ki, read-out: Akt3 Ki): 4170 nM
Ki (ROCK1; Avg, 10 μM ATP): 61.2 nM
Ki (ROCK1; average Ki): 61.2 nM
Ki (p70S6K human enzyme; [6]): 2610 nM
Ki (p70S6K human enzyme; [7]): 2610 nM

CCS(=O)(=O)Nc1cc(CN2CC[C@@H](Nc3cccc4cnccc34)C2)ccc1C [Compound 2.054, (R)-N-(5-((3-(isoquinolin-5-ylamino)pyrrolidin-1-yl)methyl)-2-methylphenyl)ethanesulfonamide]
Percent of PDGF Induced Proliferation at 1 μM Avg [1]: 68.2%
Percent of PDGF Induced Proliferation at 10 μM Avg [1]: 84.6%
Ki (ROCK2; [4]): 3.7 nM
Ki (ROCK2; average Ki, read-out: ROCK2 Ki): 3.7 nM
concentration at 15 min [2]: 765 nM
Ki (Akt3 human enzyme; [5]): 415 nM
Ki (Akt3 human enzyme; average Ki, read-out: Akt3 Ki): 415 nM
Ki (ROCK1; Avg, 10 μM ATP): 17.1 nM
Ki (ROCK1; average Ki): 17.1 nM
Ki (p70S6K human enzyme; [6]): 439 nM
Ki (p70S6K human enzyme; [7]): 439 nM

C#Cc1ccc(CN2CC[C@@H](Nc3cccc4cnccc34)C2)cc1 [Compound 2.031, (R)-N-(1-(4-ethynylbenzyl)pyrrolidin-3-yl)isoquinolin-5-amine]
Percent of PDGF Induced Proliferation at 1 μM Avg [1]: 90.3%
Percent of PDGF Induced Proliferation at 10 μM Avg [1]: 52.6%
Ki (ROCK2; [4]): 5.3 nM
Ki (ROCK2; average Ki, read-out: ROCK2 Ki): 5.3 nM
concentration at 15 min [2]: 1430 nM
Ki (Akt3 human enzyme; [5]): 1360 nM
Ki (Akt3 human enzyme; average Ki, read-out: Akt3 Ki): 1360 nM
Ki (ROCK1; Avg, 10 μM ATP): 14.6 nM
Ki (ROCK1; average Ki): 14.6 nM
Ki (p70S6K human enzyme; [6]): 326 nM
Ki (p70S6K human enzyme; [7]): 326 nM

NS(=O)(=O)c1cccc(CN2CCC[C@H](Nc3ccc4[nH]ncc4c3)C2)c1 [Compound 1.215, (S)-3-((3-(1H-indazol-5-ylamino)piperidin-1-yl)methyl)benzenesulfonamide]
Percent of PDGF Induced Proliferation at 1 μM Avg [1]: 70.8%
Percent of PDGF Induced Proliferation at 10 μM Avg [1]: 54.0%
Ki (ROCK2; [4]): 3.5 nM
Ki (ROCK2; average Ki, read-out: ROCK2 Ki): 3.5 nM
concentration at 15 min [2]: 2650 nM
Ki (Akt3 human enzyme; [5]): 14800 nM
Ki (Akt3 human enzyme; average Ki, read-out: Akt3 Ki): 4750 nM
Ki (ROCK1; Avg, 10 μM ATP): 103 nM
Ki (ROCK1; average Ki): 103 nM
Ki (p70S6K human enzyme; [6]): 1290 nM
Ki (p70S6K human enzyme; [7]): 1290 nM

Cc1ccc(S(=O)(=O)Nc2cc(CN3CCC[C@H](Nc4ccc5[nH]ncc5c4)C3)ccc2C)cc1 [Compound 1.239, (S)-N-(5-((3-(1H-indazol-5-ylamino)piperidin-1-yl)methyl)-2-methylphenyl)-4-methylbenzenesulfonamide]
Percent of PDGF Induced Proliferation at 1 μM Avg [1]: 41.7%
Percent of PDGF Induced Proliferation at 10 μM Avg [1]: 37.8%
Ki (ROCK2; [4]): 6.3 nM
Ki (ROCK2; average Ki, read-out: ROCK2 Ki): 6.3 nM
concentration at 15 min [2]: 259 nM
Ki (Akt3 human enzyme; [5]): 17700 nM
Ki (Akt3 human enzyme; average Ki, read-out: Akt3 Ki): 17700 nM
Ki (ROCK1; Avg, 10 μM ATP): 283 nM
Ki (ROCK1; average Ki): 283 nM
Ki (p70S6K human enzyme; [6]): 10000 nM
Ki (p70S6K human enzyme; [7]): 10000 nM

NC(=O)Cn1ccc2ccc(CN3CCC[C@H](Nc4ccc5[nH]ncc5c4)C3)cc21 [Compound 1.107, (S)-2-(6-((3-(1H-indazol-5-ylamino)piperidin-1-yl)methyl)-1H-indol-1-yl)acetamide]
Ki (ROCK2; [4]): 14 nM
Vz_F ([3]; mean n = 3): 36.3 L/kg
AUC(0-t) ([3]; male, CD Sprague Dawley, mean n = 3): 1.59 µM·h
Cmax ([3]; male, CD Sprague Dawley, mean n = 3, read-out: Cmax): 544 nM
Tmax ([3]; male, CD Sprague Dawley, mean n = 3, read-out: Tmax): 1.67 h
half-life ([3]; male, CD Sprague Dawley, mean n = 3, read-out: t½ (converted)): 1.28 h
Ki (Akt3 human enzyme; [5]): 16300 nM
Ki (ROCK1; Avg, 10 μM ATP): 234 nM
Ki (p70S6K human enzyme; [6]): 3360 nM

Cc1ccc(CN2CCC[C@@H](Nc3ccc4[nH]ncc4c3)C2)cc1O [Compound 1.173, (R)-5-((3-(1H-indazol-5-ylamino)piperidin-1-yl)methyl)-2-methylphenol]
Percent of PDGF Induced Proliferation at 1 μM Avg [1]: 55.4%
Percent of PDGF Induced Proliferation at 10 μM Avg [1]: 35.8%
Ki (ROCK2; [4]): 3.6 nM
Ki (ROCK2; average Ki, read-out: ROCK2 Ki): 3.6 nM
concentration at 15 min [2]: 144 nM
Ki (Akt3 human enzyme; [5]): 157 nM
Ki (Akt3 human enzyme; average Ki, read-out: Akt3 Ki): 157 nM
Ki (ROCK1; Avg, 10 μM ATP): 15.1 nM
Ki (ROCK1; average Ki): 15.1 nM
Ki (p70S6K human enzyme; [6]): 340 nM
Ki (p70S6K human enzyme; [7]): 340 nM

CS(=O)(=O)Nc1cc(CN2CCC[C@H](Nc3ccc4[nH]ncc4c3)C2)ccc1Cl [Compound 1.213, (S)-N-(5-((3-(1H-indazol-5-ylamino)piperidin-1-yl)methyl)-2-chlorophenyl)methanesulfonamide]
Percent of PDGF Induced Proliferation at 1 μM Avg [1]: 70.1%
Percent of PDGF Induced Proliferation at 10 μM Avg [1]: 52.3%
Ki (ROCK2; [4]): 3 nM
Ki (ROCK2; average Ki, read-out: ROCK2 Ki): 3 nM
concentration at 15 min [2]: 396 nM
Ki (Akt3 human enzyme; [5]): 3210 nM
Ki (Akt3 human enzyme; average Ki, read-out: Akt3 Ki): 3210 nM
Ki (ROCK1; Avg, 10 μM ATP): 106 nM
Ki (ROCK1; average Ki): 106 nM
Ki (p70S6K human enzyme; [6]): 2100 nM
Ki (p70S6K human enzyme; [7]): 2100 nM
